Data: PubChem BioAssay AID1963445 (Molecular Pharmacology Branch, DTP, NCI, 2024)
Several values for one entry are separate records, joined by “and”; a condition that tells them apart may be missing. Identical values can stand only once.

Test system: MCF7 complex spheroid growth, % test/control
Assay: Anticancer human tumor MCF7 cell line growth inhibition [Asc];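 note: spheroids exposed to compounds for 7 days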;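 for viability, T/C: 100% = DMSO vehicle control wells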
Settings: for viability, T/C: stronger effect = lower value; active = viability on the fitted dose curve at most 10% of control; inactive = the rest
How it was run: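 Complex solid-tumor spheroids incorporating human endothelial and mesenchymal stem cells received single agents or combinations over half-log dilution ranges anchored to clinical Cmax.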

[1] = curve of first compound, second compound 0.00949 µM
[2] = curve of first compound, second compound 0.03 µM
[3] = curve of first compound, second compound 0.0949 µM
[4] = curve of first compound, second compound 0.3 µM
[5] = curve of first compound, second compound 0.949 µM
[6] = curve of first compound, second compound 3 µM
[7] = second compound 0.00949 µM, first compound 0.00316 µM
[8] = second compound 0.00949 µM, first compound 0.01 µM
[9] = second compound 0.00949 µM, first compound 0.0316 µM
[10] = second compound 0.00949 µM, first compound 0.1 µM
[11] = second compound 0.03 µM, first compound 0.00316 µM
[12] = second compound 0.03 µM, first compound 0.01 µM
[13] = second compound 0.03 µM, first compound 0.0316 µM
[14] = second compound 0.03 µM, first compound 0.1 µM
[15] = second compound 0.0949 µM, first compound 0.00316 µM
[16] = second compound 0.0949 µM, first compound 0.01 µM
[17] = second compound 0.0949 µM, first compound 0.0316 µM
[18] = second compound 0.0949 µM, first compound 0.1 µM
[19] = second compound 0.3 µM, first compound 0.00316 µM
[20] = second compound 0.3 µM, first compound 0.01 µM
[21] = second compound 0.3 µM, first compound 0.0316 µM
[22] = second compound 0.3 µM, first compound 0.1 µM
[23] = second compound 0.949 µM, first compound 0.00316 µM
[24] = second compound 0.949 µM, first compound 0.01 µM
[25] = second compound 0.949 µM, first compound 0.0316 µM
[26] = second compound 0.949 µM, first compound 0.1 µM
[27] = second compound 3 µM, first compound 0.00316 µM
[28] = second compound 3 µM, first compound 0.01 µM
[29] = second compound 3 µM, first compound 0.0316 µM
[30] = second compound 3 µM, first compound 0.1 µM
[31] = second compound 0.00949 µM, first compound 0.316 µM
[32] = second compound 0.00949 µM, first compound 1 µM
[33] = second compound 0.03 µM, first compound 0.316 µM
[34] = second compound 0.03 µM, first compound 1 µM
[35] = second compound 0.0949 µM, first compound 0.316 µM
[36] = second compound 0.0949 µM, first compound 1 µM
[37] = second compound 0.3 µM, first compound 0.316 µM
[38] = second compound 0.3 µM, first compound 1 µM
[39] = second compound 0.949 µM, first compound 0.316 µM
[40] = second compound 0.949 µM, first compound 1 µM
[41] = second compound 3 µM, first compound 0.316 µM
[42] = second compound 3 µM, first compound 1 µM

NC1CCC(NC2CC2c2ccccc2)CC1 (stereo not drawn) + CCN1C(C(=O)NC23CCC(C(=O)O)(CC2)CC3)C(c2cccc(Cl)c2F)C2(C(=O)Nc3cc(Cl)ccc32)C12CCCCC2
> 100 nM: IC50 [1] | IC50 [2] | IC50 [3]
< 0.316 nM: IC50 [4] | IC50 [5] | IC50 [6]
inactive: viability, T/C (second compound 0.00949 µM, first compound 0.000316 µM) 131% | viability, T/C (second compound 0.00949 µM, first compound 0.001 µM) 116% | viability, T/C [7] 131% | viability, T/C [8] 154% | viability, T/C [9] 126% | viability, T/C [10] 127% | viability, T/C (second compound 0.03 µM, first compound 0.000316 µM) 108% | viability, T/C (second compound 0.03 µM, first compound 0.001 µM) 113% | viability, T/C [11] 123% | viability, T/C [12] 101% | viability, T/C [13] 107% | viability, T/C [14] 74.8% | viability, T/C (second compound 0.0949 µM, first compound 0.000316 µM) 65.9% | viability, T/C (second compound 0.0949 µM, first compound 0.001 µM) 57.9% | viability, T/C [15] 43.3% | viability, T/C [16] 51.7% | viability, T/C [17] 58.1% | viability, T/C [18] 56.8% | viability, T/C (second compound 0.3 µM, first compound 0.000316 µM) 39.4% | viability, T/C (second compound 0.3 µM, first compound 0.001 µM) 38.8% | viability, T/C [19] 43.8% | viability, T/C [20] 40% | viability, T/C [21] 34.1% | viability, T/C [22] 43% | viability, T/C (second compound 0.949 µM, first compound 0.000316 µM) 30.3% | viability, T/C (second compound 0.949 µM, first compound 0.001 µM) 26.9% | viability, T/C [23] 29.1% | viability, T/C [24] 25.7% | viability, T/C [25] 29.1% | viability, T/C [26] 23.8% | viability, T/C (second compound 3 µM, first compound 0.000316 µM) 18.3% | viability, T/C (second compound 3 µM, first compound 0.001 µM) 18.6% | viability, T/C [27] 19.9% | viability, T/C [28] 15.5% | viability, T/C [29] 16.5% | viability, T/C [30] 19.6%

C#Cc1c(F)ccc2cc(O)cc(-c3ncc4c(N5CC6CCC(C5)N6)nc(OCC56CCCN5CC(F)C6)nc4c3F)c12 (stereo not drawn)
> 10000 nM: IC50 (curve of compound)
inactive: viability, T/C (compound 0.0316 µM) 97% and 87.3% and 92.6% | viability, T/C (compound 0.1 µM) 102% and 115% and 97.1% | viability, T/C (compound 0.316 µM) 94.8% and 96.2% and 101% | viability, T/C (compound 1 µM) 103% and 97.7% and 108% | viability, T/C (compound 3.16 µM) 90.2% and 99% and 101% | viability, T/C (compound 10 µM) 87.2% and 87.3% and 87.7%

C=CC(=O)N1CCN(c2nc(=O)n(-c3c(C)ccnc3C(C)C)c3nc(-c4c(O)cccc4F)c(F)cc23)C(C)C1 (stereo not drawn) + CCN1C(C(=O)NC23CCC(C(=O)O)(CC2)CC3)C(c2cccc(Cl)c2F)C2(C(=O)Nc3cc(Cl)ccc32)C12CCCCC2
inactive: viability, T/C [9] 109% | viability, T/C [10] 104% | viability, T/C [31] 113% | viability, T/C [32] 107% | viability, T/C (second compound 0.00949 µM, first compound 3.16 µM) 113% | viability, T/C (second compound 0.00949 µM, first compound 10 µM) 91.1% | viability, T/C [13] 96.1% | viability, T/C [14] 93.7% | viability, T/C [33] 83.3% | viability, T/C [34] 68.2% | viability, T/C (second compound 0.03 µM, first compound 3.16 µM) 82.9% | viability, T/C (second compound 0.03 µM, first compound 10 µM) 59.8% | viability, T/C [17] 53.9% | viability, T/C [18] 56.4% | viability, T/C [35] 55.3% | viability, T/C [36] 42.5% | viability, T/C (second compound 0.0949 µM, first compound 3.16 µM) 45.7% | viability, T/C (second compound 0.0949 µM, first compound 10 µM) 35.5% | viability, T/C [21] 34.8% | viability, T/C [22] 33.5% | viability, T/C [37] 35.6% | viability, T/C [38] 33% | viability, T/C (second compound 0.3 µM, first compound 3.16 µM) 32% | viability, T/C (second compound 0.3 µM, first compound 10 µM) 32.6% | viability, T/C [25] 24.5% | viability, T/C [26] 23.1% | viability, T/C [39] 20.7% | viability, T/C [40] 25.2% | viability, T/C (second compound 0.949 µM, first compound 3.16 µM) 32.1% | viability, T/C (second compound 0.949 µM, first compound 10 µM) 21.4% | viability, T/C [29] 16.6% | viability, T/C [30] 17.1% | viability, T/C [41] 19.1% | viability, T/C [42] 18.3% | viability, T/C (second compound 3 µM, first compound 3.16 µM) 22.1% | viability, T/C (second compound 3 µM, first compound 10 µM) 24.2%
585 nM: IC50 [3]
< 31.6 nM: IC50 [4] | IC50 [5] | IC50 [6]
> 10000 nM: IC50 [1] | IC50 [2]

O=C(c1ccc(F)c(F)c1Nc1ccc(I)cc1F)N1CC(O)([C@@H]2CCCCN2)C1 + CCN1C(C(=O)NC23CCC(C(=O)O)(CC2)CC3)C(c2cccc(Cl)c2F)C2(C(=O)Nc3cc(Cl)ccc32)C12CCCCC2
inactive: viability, T/C [7] 104% | viability, T/C [8] 101% | viability, T/C [9] 111% | viability, T/C [10] 97.2% | viability, T/C [31] 94.9% | viability, T/C [32] 100% | viability, T/C [11] 105% | viability, T/C [12] 99.4% | viability, T/C [13] 93.9% | viability, T/C [14] 96.6% | viability, T/C [33] 81.4% | viability, T/C [34] 63.5% | viability, T/C [15] 50.6% | viability, T/C [16] 44% | viability, T/C [17] 46.5% | viability, T/C [18] 44.4% | viability, T/C [35] 44.8% | viability, T/C [36] 38.7% | viability, T/C [19] 32.1% | viability, T/C [20] 28% | viability, T/C [21] 26.7% | viability, T/C [22] 26.6% | viability, T/C [37] 33% | viability, T/C [38] 24.5% | viability, T/C [23] 16.4% | viability, T/C [24] 19.6% | viability, T/C [25] 14.8% | viability, T/C [26] 15.3% | viability, T/C [39] 13.4% | viability, T/C [40] 13.3% | viability, T/C [27] 14.3% | viability, T/C [28] 14.3% | viability, T/C [29] 9.2% | viability, T/C [30] 12.3% | viability, T/C [41] 14.2% | viability, T/C [42] 11%
< 3.16 nM: IC50 [3] | IC50 [4] | IC50 [5] | IC50 [6]
> 1000 nM: IC50 [1] | IC50 [2]
